Source: patent publication US8426408B2, “Pyrimidine inhibitors of kinases” (AbbVie Inc., priority 2009, dated 2013)
pKi: −log10 of the molar value.

What was measured:
[1] = target: T1, Aurora A (Homo sapiens, UniProt O14965); assay: Aurora A enzyme inhibition (time-resolved fluorescence, STK substrate-2); type: biochemical; details: 1 mM ATP
T1 sequence (O14965 1-403): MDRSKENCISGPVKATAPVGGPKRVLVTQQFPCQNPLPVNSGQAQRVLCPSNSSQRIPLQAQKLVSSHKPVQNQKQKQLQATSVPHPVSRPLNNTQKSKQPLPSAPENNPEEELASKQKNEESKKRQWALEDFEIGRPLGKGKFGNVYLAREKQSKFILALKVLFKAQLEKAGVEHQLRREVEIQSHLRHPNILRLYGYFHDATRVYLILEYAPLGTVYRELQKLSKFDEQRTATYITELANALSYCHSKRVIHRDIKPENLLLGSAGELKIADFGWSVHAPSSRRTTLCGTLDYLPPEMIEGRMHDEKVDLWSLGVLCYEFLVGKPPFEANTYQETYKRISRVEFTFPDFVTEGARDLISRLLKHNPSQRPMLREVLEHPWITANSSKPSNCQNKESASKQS
How it was run: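 Active enzyme incubated 1 h with biotinylated STK substrate-2, 1 mM ATP and inhibitor in Hepes pH 7.4 with MgCl2, orthovanadate and Triton X-100. EDTA stop; phosphopeptide detected by Eu-cryptate anti-phospho-STK/SA-XL665 TR-FRET (665/615 nm ratio); IC50 by exponential fit.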

[2] = target: KDR (Homo sapiens, UniProt P35968); assay: KDR HTRF in vitro kinase assay; type: biochemical; design: purified enzyme (His6-KDR 789-1354, MW 63 kD); His6 (N); details: 1 mM ATP; read-out: KDR enzyme inhibition data (Ki)
How it was run: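 His6-KDR 789-1354 (7 ng/well) with 0.5 μM biotinylated peptide substrate and 1 mM ATP in HEPES pH 7.1, MgCl2/MnCl2, 60 min at room temperature. EDTA-quenched, detected by streptavidin-XL-665 plus Eu-kryptate anti-phosphotyrosine HTRF after 3 h; IC50 from 620/665 nm ratio.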

[3] = system: NCI-H1299 cells; assay: Induction of polyploidy in H1299; type: cell-based, Human; details: Homo sapiens; NCI-H1299, 48 hours; read-out: EC15 (concentration of inhibitor necessary to induce polyploidy in 15% of cells)
How it was run: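 NCI-H1299 cells in RPMI 1640/10% FCS were treated with inhibitor concentrations in duplicate for 48 h at 37 C, then formalin-fixed and Hoechst-stained. Nuclear area was measured by high-content imaging, with polyploid (≥4N) defined as >750 μ^2. EC15 was derived by least-squares fit of log dose-response.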

[4] = target: T2, Aurora B (Homo sapiens, UniProt Q96GD4); assay: Aurora B enzyme inhibition (time-resolved fluorescence, histone H3 peptide); type: biochemical; details: 1 mM ATP
T2 construct: Active Aurora B enzyme (recombinant residues 1-344)
How it was run: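 Recombinant Aurora B (residues 1-344) with GST-INCENP phosphorylated biotinylated histone H3 (1-21) peptide at 1 mM ATP in HEPES pH 7.4 with MgCl2, orthovanadate and Triton X-100 for 1 h. After EDTA stop, the phosphopeptide was detected by TR-FRET (Eu-cryptate anti-phospho-H3 / SA-APC, 665/615 nm ratio). IC50 from an exponential fit.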

T2 sequence (Q96GD4 whole entry, the tested form may be a part): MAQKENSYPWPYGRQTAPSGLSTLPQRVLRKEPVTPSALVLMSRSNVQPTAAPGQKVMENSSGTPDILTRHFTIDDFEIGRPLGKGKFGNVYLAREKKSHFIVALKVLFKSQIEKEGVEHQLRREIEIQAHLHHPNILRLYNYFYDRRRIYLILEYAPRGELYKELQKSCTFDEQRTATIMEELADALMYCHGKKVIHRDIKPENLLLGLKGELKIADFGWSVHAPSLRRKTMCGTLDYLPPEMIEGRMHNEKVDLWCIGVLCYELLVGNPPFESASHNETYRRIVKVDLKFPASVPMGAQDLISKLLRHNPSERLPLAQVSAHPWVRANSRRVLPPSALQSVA
T2 sequence (Q9NQS7 826-918 partner limits assumed): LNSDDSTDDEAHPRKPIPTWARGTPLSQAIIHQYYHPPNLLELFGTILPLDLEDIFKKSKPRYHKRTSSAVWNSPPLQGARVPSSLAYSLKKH
Sequence of KDR (P35968 789-1354): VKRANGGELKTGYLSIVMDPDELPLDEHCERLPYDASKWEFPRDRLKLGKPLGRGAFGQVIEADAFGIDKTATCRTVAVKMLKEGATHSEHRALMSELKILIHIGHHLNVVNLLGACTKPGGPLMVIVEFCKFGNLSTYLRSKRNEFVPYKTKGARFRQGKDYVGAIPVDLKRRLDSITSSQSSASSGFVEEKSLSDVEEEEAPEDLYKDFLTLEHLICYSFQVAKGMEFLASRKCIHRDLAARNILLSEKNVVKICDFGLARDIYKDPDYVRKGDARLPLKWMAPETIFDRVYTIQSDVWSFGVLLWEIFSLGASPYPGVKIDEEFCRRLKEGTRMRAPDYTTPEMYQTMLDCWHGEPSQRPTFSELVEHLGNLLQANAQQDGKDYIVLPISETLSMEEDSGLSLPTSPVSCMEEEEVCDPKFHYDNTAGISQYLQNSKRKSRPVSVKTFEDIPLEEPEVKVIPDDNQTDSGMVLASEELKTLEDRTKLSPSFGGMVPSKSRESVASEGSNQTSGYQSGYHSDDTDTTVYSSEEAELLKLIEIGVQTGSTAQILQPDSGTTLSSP

pKi [1] | pKi [2] | pKi [4] | SMILES | EC15 [3] [µM]
> 7.00 | > 7.00 | > 7.00 | COCCOCCn1cc(Nc2ncc(Cl)c(N[C@H]3[C@@H](C(N)=O)[C@@H]4C=C[C@H]3C4)n2)cn1 [Example 100, (1S,2S,3R,4R)-3-{[5-chloro-2-({1-[2-(2-methoxyethoxy)ethyl]-1H-pyrazol-4-yl}amino)pyrimidin-4-yl]amino}bicyclo[2.2.1]hept-5-ene-2-carboxamide] | < 0.1
> 7.00 | > 7.00 | > 7.00 | NC(=O)[C@@H]1[C@H](Nc2nc(Nc3cnn(CC(=O)O)c3)ncc2Cl)[C@H]2C=C[C@@H]1C2 [Example 103, {4-[(4-{[(1R,2R,3S,4S)-3-carbamoylbicyclo[2.2.1]hept-5-ene-2-yl]amino}-5-chloropyrimidin-2-yl)amino]-1H-pyrazol-1-yl}acetic acid] | < 0.1
> 7.00 | > 7.00 | > 7.00 | COCCn1cc(Nc2ncc(Br)c(N[C@H]3[C@@H](C(N)=O)[C@@H]4C=C[C@H]3C4)n2)cn1 [Example 106, (1S,2S,3R,4R)-3-[(5-bromo-2-{[1-(2-methoxyethyl)-1H-pyrazol-4-yl]amino}pyrimidin-4-yl)amino]bicyclo[2.2.1]hept-5-ene-2-carboxamide] | < 0.1
> 7.00 | > 7.00 | > 7.00 | NC(=O)[C@@H]1[C@H](Nc2nc(Nc3cnn([C@@H]4CCOC4)c3)ncc2Cl)[C@H]2C=C[C@@H]1C2 [Example 107, (1S,2S,3R,4R)-3-{[5-chloro-2-({1-[(3R)-tetrahydrofuran-3-yl]-1H-pyrazol-4-yl}amino)pyrimidin-4-yl]amino}bicyclo[2.2.1]hept-5-ene-2-carboxamide] | < 0.1
> 7.00 | > 7.00 | > 7.00 | NC(=O)[C@@H]1[C@H](Nc2nc(Nc3cnn([C@H]4CCOC4)c3)ncc2Cl)[C@H]2C=C[C@@H]1C2 [Example 108, (1S,2S,3R,4R)-3-{[5-chloro-2-({1-[(3S)-tetrahydrofuran-3-yl]-1H-pyrazol-4-yl}amino)pyrimidin-4-yl]amino}bicyclo[2.2.1]hept-5-ene-2-carboxamide] | < 0.1
> 7.00 | > 7.00 | > 7.00 | Cn1cc(Nc2ncc(C(F)(F)F)c(Nc3ccccc3C3(O)CNC3)n2)cn1 [Example 109, 3-[2-({2-[(1-methyl-1H-pyrazol-4-yl)amino]-5-(trifluoromethyl)pyrimidin-4-yl}amino)phenyl]azetidin-3-ol] | < 0.1
> 7.00 | > 7.00 | > 7.00 | CC(C)CCn1cc(Nc2ncc(Br)c(N[C@H]3[C@@H](C(N)=O)[C@@H]4C=C[C@H]3C4)n2)cn1 [Example 111, (1S,2S,3R,4R)-3-[(5-bromo-2-{[1-(3-methylbutyl)-1H-pyrazol-4-yl]amino}pyrimidin-4-yl)amino]bicyclo[2.2.1]hept-5-ene-2-carboxamide] | < 0.1
> 7.00 | > 7.00 | > 7.00 | Cn1cc(Nc2ncc(C(F)(F)F)c(Nc3ccccc3C3(O)CCC3)n2)cn1 [Example 115, 1-[2-({2-[(1-methyl-1H-pyrazol-4-yl)amino]-5-(trifluoromethyl)pyrimidin-4-yl}amino)phenyl]cyclobutanol] | < 0.1

The remaining lines, values behind:

SMILES | pKi [1] | pKi [2] | pKi [4] | EC15 [3] [µM]
CC(C)n1cc(Nc2ncc(Cl)c(N[C@H]3[C@@H](C(N)=O)[C@@H]4C=C[C@H]3C4)n2)cn1 [Example 98, (1S,2S,3R,4R)-3-({5-chloro-2-[(1-isopropyl-1H-pyrazol-4-yl)amino]pyrimidin-4-yl}amino)bicyclo[2.2.1]hept-5-ene-2-carboxamide] | > 7.00 | > 7.00 | > 7.00 | < 0.1
CC(C)CCn1cc(Nc2ncc(Cl)c(N[C@H]3[C@@H](C(N)=O)[C@@H]4C=C[C@H]3C4)n2)cn1 [Example 99, (1S,2S,3R,4R)-3-[(5-chloro-2-[1-(3-methylbutyl)-1H-pyrazol-4-yl]aminopyrimidin-4-yl)amino]bicyclo[2.2.1]hept-5-ene-2-carboxamide] | > 7.00 | > 7.00 | > 7.00 | < 0.1
Cn1cc(Nc2ncc(Cl)c(Nc3ccccc3C3(O)CCC3)n2)cn1 [Example 101, 1-[2-({5-chloro-2-[(1-methyl-1H-pyrazol-4-yl)amino]pyrimidin-4-yl}amino)phenyl]cyclobutanol] | > 7.00 | > 7.00 | > 7.00 | < 0.1
NC(=O)[C@@H]1[C@H](Nc2nc(Nc3cnn(C[C@H]4CCCN4)c3)ncc2Cl)[C@H]2C=C[C@@H]1C2 [Example 102, (1S,2S,3R,4R)-3-{[5-chloro-2-({1-[(2R)-pyrrolidin-2-ylmethyl]-1H-pyrazol-4-yl}amino)pyrimidin-4-yl]amino}bicyclo[2.2.1]hept-5-ene-2-carboxamide] | > 7.00 | > 7.00 | > 7.00 | < 0.1
C[C@@H](O)Cn1cc(Nc2ncc(Cl)c(N[C@@H]3[C@H]4CC[C@H](C4)[C@@H]3C(N)=O)n2)cn1 [Example 104, (1R,2S,3R,4S)-3-{[5-chloro-2-({1-[(2R)-2-hydroxypropyl]-1H-pyrazol-4-yl}amino)pyrimidin-4-yl]amino}bicyclo[2.2.1]heptane-2-carboxamide] | > 7.00 | > 7.00 | > 7.00 | < 0.1
C[C@@H](O)Cn1cc(Nc2ncc(Cl)c(N[C@H]3[C@@H](C(N)=O)[C@@H]4C=C[C@H]3C4)n2)cn1 [Example 105, (1S,2S,3R,4R)-3-{[5-chloro-2-({1-[(2R)-2-hydroxypropyl]-1H-pyrazol-4-yl}amino)pyrimidin-4-yl]amino}bicyclo[2.2.1]hept-5-ene-2-carboxamide] | > 7.00 | > 7.00 | > 7.00 | < 0.1
COCCOCCn1cc(Nc2ncc(Br)c(N[C@H]3[C@@H](C(N)=O)[C@@H]4C=C[C@H]3C4)n2)cn1 [Example 110, (1S,2S,3R,4R)-3-{[5-bromo-2-({1-[2-(2-methoxyethoxy)ethyl]-1H-pyrazol-4-yl}amino)pyrimidin-4-yl]amino}bicyclo[2.2.1]hept-5-ene-2-carboxamide] | > 7.00 | > 7.00 | > 7.00 | < 0.1
CC(C)n1cc(Nc2ncc(Br)c(N[C@H]3[C@@H](C(N)=O)[C@@H]4C=C[C@H]3C4)n2)cn1 [Example 112, (1S,2S,3R,4R)-3-({5-bromo-2-[(1-isopropyl-1H-pyrazol-4-yl)amino]pyrimidin-4-yl}amino)bicyclo[2.2.1]hept-5-ene-2-carboxamide] | > 7.00 | > 7.00 | > 7.00 | < 0.1
NC(=O)[C@@H]1[C@H](Nc2nc(Nc3cnn([C@@H]4CCOC4)c3)ncc2Br)[C@H]2C=C[C@@H]1C2 [Example 116, (1S,2S,3R,4R)-3-{[5-bromo-2-({1-[(3R)-tetrahydrofuran-3-yl]-1H-pyrazol-4-yl}amino)pyrimidin-4-yl]amino}bicyclo[2.2.1]hept-5-ene-2-carboxamide] | > 7.00 | > 7.00 | > 7.00 | < 0.1
